Patent US20240156972A1 (priority 2021, published 2024)
Numbered stars: 1 amine (or outer) side, 2 acyl side, 3 side chain; on linkers, the order of the positions; unused ones are H or OH. Square brackets hold non-standard residues; d marks the D form. Peptide text beside a SMILES is read from it. X1 = O=C(C(Cc1cccc(S(=O)(=O)F)c1)N[*:1])[*:2]; Lys(N3) = [N-]=[N+]=NCCCC[C@H](N)C(=O)O; X2 = N=C(N)CCCC[C@H](N[*:1])C(=O)[*:2]; Y‑OSO2F = fluorosulfate Tyr; N3‑K = azido-Lys

What was measured:
[1] = system: PSMA-expressing human embryonic kidney (HEK) cells; assay: ARM 1.2-mediated ADCP by U937 human monocytes, 2-color flow cytometry; format: cell-based
Method: ADCP of PSMA-expressing human cells by human monocytes was assessed in the presence of ARM 1.2 and anti-gD1 mouse IgG2a antibody (FIG. 12). ADCP was determined by 2-color flow cytometry assays, where target cell phagocytosis was measured by double positive cell events consisting of FL-1 dye-labeled U937 human monocytes and FL-4 dye-labeled engineered human embryonic kidney (HEK) cells expressing PSMA.
Robust ADCP was only observed when cell surface PSMA and anti-HSV antibody are both present (HEK+_EXP).

[2] = Stability of covalent antibody-binding peptides in 1×PBS by LC-HRMS; format: physicochemical; conditions: 500 μM, room temperature
Method: Liquid chromatography-high resolution mass spectrometry (LC-HRMS) data was obtained on a BRUKER MicroTOF II mass spectrometer. Samples were dissolved in 1×PBS at 500 μM concentrations and were monitored for stability at room temperature over indicated periods of time. Specific m/z −20 amu (loss of H^+ and F^−) and m/z −2 amu (F/OH exchange) masses were monitored to probe off-pathway cyclization and hydrolysis reactions, respectively.
To evaluate the stability of peptide 5 (gDR(F10FSY)), the peptide (500 μM) was incubated in 1×PBS at room temperature and analyzed by LC-HRMS at 0, 24, 48 and 72 hours (FIG. 83). […] Hydrolyzed peptide appeared to elute just before intact peptide after 3 days of incubation.
To evaluate the stability of peptide 7 (ASF-gDR), the peptide (500 μM) was incubated in 1×PBS at room temperature and analyzed by LC-HRMS at 0, 24, 48 and 72 hours.

[3] = Stability of aryl sulfonyl fluoride group in PBS by 19F NMR; format: physicochemical; conditions: PBS (90% PBS), 10% D2O, room temperature, F− appearance, read-out: half-life of sulfonyl fluoride hydrolysis (converted)
Method: A 700 MHz NMR was used to measure ^19F NMR spectra. Bruker TopSpin 4.0.9 was used to process and analyze spectra. GraphPad Prism 8 software was used to visualize and perform non-linear regression of acquired data.
Peptide 7 (ASF-gDR) was used to investigate the stability of the meta-aryl sulfonyl fluoride (ASF) group in 1×PBS at room temperature. The sample was prepared at a 0.5 mM concentration in 90% PBS, 10% D2O. A 700 MHz NMR was used to monitor sulfonyl fluoride disappearance and fluoride (F^− (aq)) appearance overtime, relative to a TFA internal standard. To quantify fluoride loss and gain, peaks were positively phased and integrated relative to the TFA internal standard, which was held constant at three fluoride atoms. A plot of fluoride leaving group appearance over time was fitted with the first order decay equation.
Half-life was calculated from a plot of integrated F^− over time using Equation 1.

In the case of `CSCC[C@H](NC(=O)[C@@H](C)NC(=O)[C@@H](CC(=O)O)NC(=O)[C@H]1CCCN1C(=O)[C@@H](CC(N)=O)NC(=O)[C@H](CCCNC(=N)N)NC(=O)[C@@H](Cc1ccccc1)NC(=O)[C@H](CCCNC(=N)N)NC(=O)CNC(=O)[C@H](CCCCN)NC(=O)[C@@H](CC(=O)O)NC(=O)[C@H](CC(C)C)NC(=O)[C@H](CCCCn1cc(COCCOCCOCCOCCOCCOCCOCCOCCNC(=O)NCCCC[C@H](NC(=O)N[C@@H](CCC(=O)O)C(=O)O)C(=O)O)nn1)NC(C)=O)C(=O)N[C@H](CCCCN)C(=O)N[C@@H](CC(C)C)C(N)=O` [ARM 1.2, GUL-PEG8-HSVqD1], the ADCP ([1]; HEK+_EXP: cell surface PSMA and anti-HSV antibody both present) was “Robust ADCP” and the “ADCP in control samples” value ([1]; isotype IgG, no antibody, free competitor, or HEK cells without PSMA) was “complete lack of ADCP”.
For `CSCC[C@H](NC(=O)[C@H](CCCCC(=N)N)NC(=O)[C@H](CC(C)C)NC(=O)[C@H](CCCCN=[N+]=[N-])NC(=O)C(Cc1cccc(S(=O)(=O)F)c1)NC(C)=O)C(=O)N[C@@H](C)C(=O)N[C@@H](CC(=O)O)C(=O)N1CCC[C@H]1C(=O)N[C@@H](CC(N)=O)C(=O)N[C@@H](CCCNC(=N)N)C(=O)N[C@@H](Cc1ccccc1)C(=O)N[C@@H](CCCNC(=N)N)C(=O)NCC(=O)N[C@@H](CCCNC(=N)N)C(=O)N[C@@H](CC(=O)O)C(=O)N[C@@H](CC(C)C)C(N)=O` (some centres unmarked) [Peptide 7] (Ac-[X1][Lys(N3)]L[X2]MADPNRFRGRDL-NH2), the SuFEx hydrolysis ([2]; after 24 hours) was ~50% and the half-life at 0.5 mM [3] was 8.71 h.
In the case of “Ac-(N3-K)-LRMADPNR-(Y-OSO2F)-RGRDL ({Ac-N3‑K}-LRMADPNR-{Y‑OSO2F-Arg-Gly-Arg-Asp-Leu-NH2}) [Peptide 5]”, the “stability by LC-HRMS” value ([2]; 0-72 hours) was “stable compound”.
